Assay results as given in patent publication US6133263A, “Endothelin antagonists with ether-linked groups” (Warner-Lambert Company, priority 1998, dated 2000).
pIC50: −log10 of the molar value. Where two headings read alike, the source gives them in different places. Where a SMILES comes first, the peptide text is derived from it. [ ]: non-standard residue; d: D form.

Columns and labels:
[1] = tested on: endothelin-stimulated arachidonic acid release in rabbit renal artery vascular smooth muscle cells; assay: inhibition of ET-1 stimulated arachidonic acid release (AAR) in cultured rabbit renal artery vascular smooth muscle cells; type: cell-based; settings: Oryctolagus cuniculus, 0.5 h, read-out: AAR-A
human ETA R = target: T1, human ETA R (Homo sapiens, UniProt P25101); assay: [125I]-ET-1 radioligand binding assay, Ltk- cells expressing human ETA R (HERBA-A); settings: Ltk- cell membranes, [125I]-ET-1 40 pM, 2 hours at 37° C
T1 sequence (P25101 21-427): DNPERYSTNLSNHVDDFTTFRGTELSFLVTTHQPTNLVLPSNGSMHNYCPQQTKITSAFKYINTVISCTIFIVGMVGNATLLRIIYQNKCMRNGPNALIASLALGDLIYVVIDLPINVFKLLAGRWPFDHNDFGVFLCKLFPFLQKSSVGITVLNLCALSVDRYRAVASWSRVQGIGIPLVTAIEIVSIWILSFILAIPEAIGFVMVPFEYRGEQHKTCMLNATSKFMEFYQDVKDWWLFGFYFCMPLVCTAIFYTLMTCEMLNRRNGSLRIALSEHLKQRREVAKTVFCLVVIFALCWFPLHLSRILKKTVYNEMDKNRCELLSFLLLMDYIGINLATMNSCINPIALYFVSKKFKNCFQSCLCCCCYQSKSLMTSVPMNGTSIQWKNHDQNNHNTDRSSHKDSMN

human ETB R = target: T2, human ETB R (Homo sapiens, UniProt P24530); assay: [125I]-ET-1 radioligand binding assay, CHO-K1 cells expressing recombinant human ETB R (HERBA-B); settings: CHO cell membranes, [125I]-ET-1 40 pM, 2 hours at 37° C
T2 construct: expressed in transfected cells; host or cells: CHO-K1 cells, membranes
T2 sequence (P24530 27-442): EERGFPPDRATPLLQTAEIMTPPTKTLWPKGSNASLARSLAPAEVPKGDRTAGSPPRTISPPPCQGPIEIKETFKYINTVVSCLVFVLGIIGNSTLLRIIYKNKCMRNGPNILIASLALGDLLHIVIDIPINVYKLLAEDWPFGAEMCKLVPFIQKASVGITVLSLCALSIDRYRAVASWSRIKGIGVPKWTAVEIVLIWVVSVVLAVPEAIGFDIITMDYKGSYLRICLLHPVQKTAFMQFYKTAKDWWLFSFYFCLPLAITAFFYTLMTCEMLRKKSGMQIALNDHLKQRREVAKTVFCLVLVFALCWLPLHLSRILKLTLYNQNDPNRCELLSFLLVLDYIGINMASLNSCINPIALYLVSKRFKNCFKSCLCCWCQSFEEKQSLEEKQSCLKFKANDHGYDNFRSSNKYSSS
Description: The compounds of Formula I are valuable as antagonists of endothelin.
The following radioligand binding assays were used (Reynolds E. E.; Keiser J. A.; Haleen S. J.; Walker D. M.; Davis L. S.; Olszewski B.; Taylor D. G.; Hwang O.; Welch K. M.; Flynn M. A.; Thompson D. M.; et. al., J. Pharmacol. Exp. Ther., 1995;273:1410-1417).
The following cultured cells were used in binding experiments: CHO-KL cells expressing recombinant human ETB R (HERBA B), or Ltk- cells expressing human ETA R (HERBA A). […] Membranes were prepared from cultured cells by lysing cells in cold lysis buffer (5 mM HEPES, 2 mM EDTA, pH 7.4) and homogenizing with a Dounce "A" homogenizer. All of the homogenates were centrifuged at 30,000×g for 20 minutes at 4° C. Membrane pellets were resuspended in cold buffer containing 20 mM Tris, […], 200 μM Pefablock, 10 μM phosphoramidon, 10 μM leupeptin, and 1 μM pepstatin (pH 7.4) and frozen at -80° C. until use. Radioligand and competing ligands were prepared in binding buffer containing 20 mM Tris, 2 mM EDTA, and 0.1% BSA.
Competition binding assays were initiated by combining membranes, [^125 ]-ET-1 (40 pM) and competing ligand in a final volume of 250 μL and incubating for 2 hours at 37° C. The assay was terminated by filtration over Whatman GF/B filters that were presoaked with 50 mM Tris, pH 7.4, containing 0.2% BSA and 100 μM bacitracin. […] was defined as total binding minus nonspecific binding. Specific binding was analyzed by nonlinear least squared curve fitting (InPlot, GraphPad Software, San Diego, Calif.), and the estimated IC50 value was used to calculate Ki according to the method of Cheng and Prusoff (1973).

neointima formation = settings: rats, carotid artery balloon angioplasty; cited from earlier work
[2] = oral; cited from earlier work
cerebral vasospasm [3] = settings: in vivo; cited from earlier work
[4] = tested on: ET-1 induced bronchoconstriction and tracheal smooth muscle contraction; settings: allergic sheep; cited from earlier work
[5] = tested on: pulmonary vascular resistance and pulmonary arterial pressure; settings: rat hypoxia model of hypertension; cited from earlier work
acute renal ischemia = settings: models of acute renal ischemia; cited from earlier work
chronic heart failure = settings: patients with chronic heart failure; cited from earlier work
[6] = tested on: ET-1-induced changes in gastric mucosal hemodynamics and gastric ulceration; settings: in vivo; cited from earlier work
prostate smooth muscle = settings: in vivo; cited from earlier work
[7] = tested on: ischemic damage in the cerebral hemisphere; settings: cats, middle cerebral artery occlusion, IV; cited from earlier work
cerebral vasospasm [8] = settings: rat; cited from earlier work
ischemic brain injury = settings: rats, oral; cited from earlier work
[9] = tested on: vasoconstriction of the basilar artery; settings: after 7 days, canine two-hemorrhage model of SAH; cited from earlier work

Which results are given for COc1ccc(C2(OCCCS(=O)(=O)O)OC(=O)C(c3ccc4c(c3)OCO4)=C2Cc2cc(OC)c(OC)c(OC)c2)cc1 (centres unmarked)?
pIC50 [1]: 9.52; pIC50 (human ETA R): 9.82; pIC50 (human ETB R): 5.72

Which neointima formation (neointima formation) does the source give for CCCOc1ccc2c(c1)C(c1ccc(OC)cc1OCC(=O)O)C(C(=O)O)C2c1ccc2c(c1)OCO2 (single isomer, unassigned) [SB 209670] here?
Its neointima formation is “found to ameliorate neointima formation”.

Which antihypertensive effect [2] does the source give for Cc1noc(NS(=O)(=O)c2cccc3c(N(C)C)cccc23)c1C [5-(Dimethylamino)-N-(3,4-dimethyl-5-isoxazolyl)-1-naphthalenesulfonamide] here?
The antihypertensive effect was “demonstrated an oral antihypertensive effect”.

What does the source list for CC(C)C[C@@H]1NC(=O)[C@@H](C(C)C)NC(=O)[C@@H]2CCCN2C(=O)[C@@H](CC(=O)O)NC(=O)[C@@H](Cc2c[nH]c3ccccc23)NC1=O [BQ-123] (cyclo(L[dW][dD]P[dV]))?
early cerebral vasospasm following SAH (cerebral vasospasm [3]): shown to prevent early cerebral vasospasm; ET-1 induced bronchoconstriction and tracheal smooth muscle contraction [4]: shown to block ET-1 induced bronchoconstriction and tracheal smooth muscle contraction; protection / increase in pulmonary vascular resistance and pulmonary arterial pressure [5]: provide protection in a rat hypoxia model of hypertension

For COc1ccccc1Oc1c(NS(=O)(=O)c2ccc(C(C)(C)C)cc2)nc(-c2ncccn2)nc1OCCO [Bosentan], which “efficacy in acute renal ischemia” value (acute renal ischemia) is on record?
The value was “effective in models of acute renal ischemia”.

What about the cardiac performance (chronic heart failure) of the same molecule?
The cardiac performance was “found to improve cardiac performance”.

What about the “protection / increase in pulmonary vascular resistance and pulmonary arterial pressure” value [5] of the same molecule?
Its value is “provide protection in a rat hypoxia model of hypertension”.

What about the “ET-1-induced changes in gastric mucosal hemodynamics and ET-1-induced gastric ulceration” value [6] of the same molecule?
The value was “found to be an antagonist toward the ET-1-induced changes in gastric mucosal hemodynamics as well as on ET-1-induced gastric ulceration”.

With COc1ccc(C2(OCCN3CCOCC3)OC(=O)C(c3ccc4c(c3)OCO4)=C2Cc2cc(OC)c(OC)c(OC)c2)cc1 (centres unmarked) [Example 1] as the molecule, how does the pIC50 ([1]; ET-1 0.3 nM, test compound 1 nM to 1 μM, 30 minutes) read?
The pIC50 was 8.00.

And the pIC50 (human ETA R)?
Its pIC50 is 8.55.

What about the pIC50 (human ETB R) of the same molecule?
The pIC50 was 4.92.

With COc1ccc(C2(OCCCN(C)C)OC(=O)C(c3ccc4c(c3)OCO4)=C2Cc2cc(OC)c(OC)c(OC)c2)cc1 (centres unmarked) [Example 3, 3-Benzo[1,3]dioxol-5-yl-5-(3-dimethylamino-propoxy)-5-(4-methoxy-phenyl)-4-(3,4,5-trimethoxy-benzyl)-5H-furan-2-one] as the molecule, how does the pIC50 (human ETA R) read?
Its pIC50 is 7.92.

What about the pIC50 (human ETB R) of the same molecule?
The pIC50 was under 5.60.

With COc1ccc(C2(OCCN(C)C)OC(=O)C(c3ccc4c(c3)OCO4)=C2Cc2cc(OC)c(OC)c(OC)c2)cc1 (centres unmarked) [Example 4, 3-Benzo[1,3]dioxol-5-yl-5-(2-dimethylamino-ethoxy)-5-(4-methoxy-phenyl)-4-(3,4,5-trimethoxy-benzyl)-5H-furan-2-one] as the molecule, how does the pIC50 (human ETA R) read?
The pIC50 was 9.52.

And the pIC50 (human ETB R)?
The pIC50 was 5.97.

With COc1ccc(C2(OCCN3CCOCC3)OC(=O)C(c3cc(OC)c4c(c3)OCO4)=C2Cc2cc(OC)c(OC)c(OC)c2)cc1 (centres unmarked) [Example 5, 3-(7-Methoxy-benzo[1,3]dioxol-5-yl)-5-(4-methoxy-phenyl)-5-(2-morpholin-4-yl-ethoxy)-4-(3,4,5-trimethoxy-benzyl)-5H-furan-2-one] as the molecule, how does the pIC50 (human ETA R) read?
Its pIC50 is 8.77.

What about the pIC50 (human ETB R) of the same molecule?
The pIC50 was 6.15.

With COc1ccc(C2(OCCN(C)C)OC(=O)C(c3cc(OC)cc(OC)c3)=C2Cc2cc(OC)c(OC)c(OC)c2)cc1 (centres unmarked) [Example 6] as the molecule, how does the pIC50 (human ETA R) read?
Its pIC50 is 8.59.

And the pIC50 (human ETB R)?
The pIC50 was 5.66.

Which “prostate smooth muscle function” value (prostate smooth muscle) does the source give for COc1ccc(C2(O)OC(=O)C(c3ccc4c(c3)OCO4)=C2Cc2ccccc2)cc1 (centres unmarked) [PD 155080] here?
The value was “found to mediate prostate smooth muscle function in vivo”.

Which “volume of ischemic damage in the cerebral hemisphere” value [7] does the source give for COc1ccc(C2(O)OC(=O)C(c3ccc4c(c3)OCO4)=C2Cc2cc(OC)c(OC)c(OC)c2)cc1 (centres unmarked) [PD 156707] here?
Its value is “significantly reduced”.

And the “protection / increase in pulmonary vascular resistance and pulmonary arterial pressure” value [5]?
The value was “provide protection in a rat hypoxia model of hypertension”.

Which “early cerebral vasospasm following SAH” value (cerebral vasospasm [8]) does the source give for COc1cccc(Oc2c(NS(=O)(=O)c3ccc(C(C)(C)C)cc3)ncnc2OCCO)c1 [Ro 46-2005] here?
The value was “shown to prevent early cerebral vasospasm”.

With CCCOc1ccc2c(c1)C(c1ccc(OC)cc1OCCO)C(C(=O)O)C2c1ccc2c(c1)OCO2 (centres unmarked) [SB 217242] as the molecule, how does the ischemic brain injury (ischemic brain injury) read?
The ischemic brain injury was “Reduction of ischemic brain injury”.

With FR 139317 as the molecule, how does the “vasoconstriction of the basilar artery” value [9] read?
The value was “significantly inhibited the vasoconstriction of the basilar artery”.
